Assay results: paper PMC8273887 (Journal of Medicinal Chemistry, 2021)

What was measured:
[1] = Stability in simulated gastric fluid (SGF); assay type: in vitro ADME, porcine; settings: simulated gastric fluid (SGF) with pepsin, pH 1.3, 15 μL of 1 mM peptide stock in 285 μL SGF, 37 °C, samples 0 min-24 h quenched with 0.2 M Na2CO3, RP-HPLC/LC-MS peak area as % of time 0, exponential one-phase decay fit, read-out: t1/2 in SGF
Procedure, shortened: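 Peptides incubated at 37 °C in SGF (pepsin, pH 1.3) or SIF (porcine pancreatin, pH 6.8), sampled from 0 min to 24 h. Remaining peptide quantified by RP-HPLC peak area as % of time 0, with t1/2 from one-phase exponential decay fit. Metabolites identified by LC-MS.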

[2] = target: T1, LINGO2 (Homo sapiens, UniProt Q7L985); assay: BRET assay of LINGO2 dimerization in HEK-293 cells; assay type: cell-based; settings: HEK-293 coexpressing LINGO2-YFP and LINGO2-Rluc; 0.1–10 μM peptide, 20 min incubation; coelenterazine 5 μM; n = 4
T1 construct: expressed in transfected cells; host or cells: HEK-293, transient transfection by the calcium phosphate method
T1 sequence (Q7L985 28-606) 1: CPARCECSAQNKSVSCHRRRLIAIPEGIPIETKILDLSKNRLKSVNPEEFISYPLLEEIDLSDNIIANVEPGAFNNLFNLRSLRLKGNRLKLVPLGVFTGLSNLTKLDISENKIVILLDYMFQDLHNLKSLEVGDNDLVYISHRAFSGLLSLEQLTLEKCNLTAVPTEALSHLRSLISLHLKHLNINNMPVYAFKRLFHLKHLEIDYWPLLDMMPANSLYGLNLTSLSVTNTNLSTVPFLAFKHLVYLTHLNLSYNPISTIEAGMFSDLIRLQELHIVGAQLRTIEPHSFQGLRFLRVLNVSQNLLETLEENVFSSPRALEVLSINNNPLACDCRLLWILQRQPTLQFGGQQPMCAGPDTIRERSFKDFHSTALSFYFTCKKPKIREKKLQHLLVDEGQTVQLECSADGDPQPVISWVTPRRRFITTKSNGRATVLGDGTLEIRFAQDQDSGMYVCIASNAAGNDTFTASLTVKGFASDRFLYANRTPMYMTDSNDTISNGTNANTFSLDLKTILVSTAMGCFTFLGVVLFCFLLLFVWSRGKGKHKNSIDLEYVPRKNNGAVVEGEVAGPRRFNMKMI
T1 sequence (Q7L985 28-606) 2: T1 sequence (Q7L985 28-606) 1
Description: LINGO2 has also been put forward as a potential TFF3 receptor.[38] We thus evaluated whether TFF3(C^57Acm) or TFF3 homodimer could disturb LINGO2 dimerization via a bioluminescence resonance energy transfer (BRET) assay. This method allows the study of protein interactions using energy transfer between a light-emitting enzyme and a fluorescent acceptor protein.[65] LINGO2 fused with Renilla luciferase (Rluc; protein donor) or yellow fluorescent protein (YFP; protein acceptor) were co-expressed in HEK-293 cells and BRET signal detected after adding the luminescent substrate coelenterazine. […] We then evaluated whether the TFF3 constructs could promote changes of this basal BRET signal by inducing conformational change within the dimers and/or change the dimerization state of LINGO2.
HEK-293 cells were cultured with 10% FBS at 37 °C and 5% CO2 in DMEM for 72–96 h. […] Then, total luminescence was measured by following coelenterazine addition (final concentration 5 μM). BRET signal was measured in four repeats and calculated by determining the emission ratio at 530/480 nm on cells coexpressing donor and acceptor and by subtracting the emission background BRET signal ratio (530/480 nm) of cells expressing only donor protein, then multiplying by 1,000 to obtain results in millBRET units (mBU).

CC[C@H](C)[C@@H]1NC(=O)[C@H](CCCNC(=N)N)NC(=O)[C@H](CO)NC(=O)[C@H](CC(=O)O)NC(=O)[C@H](Cc2ccccc2)NC(=O)[C@@H]2CSSC[C@H](NC(=O)[C@H](CCC(N)=O)NC(=O)[C@H](CC(N)=O)NC(=O)[C@H](C)NC(=O)[C@H](CO)NC(=O)[C@H](CC(C)C)NC(=O)CNC(=O)[C@@H](NC(=O)[C@H](Cc3ccc(O)cc3)NC(=O)[C@H](CCC(=O)O)NC(=O)[C@@H](N)CCC(=O)O)C(C)C)C(=O)N[C@@H](C)C(=O)N[C@@H](C(C)C)C(=O)N3CCC[C@H]3C(=O)N[C@@H](C)C(=O)N[C@@H](CCCCN)C(=O)N[C@@H](CC(=O)O)C(=O)N[C@@H](CCCNC(=N)N)C(=O)N[C@@H](C(C)C)C(=O)N[C@@H](CC(=O)O)C(=O)N[C@H]3CSSC[C@H](NC(=O)CNC(=O)[C@H](CCCNC(=N)N)NC(=O)[C@H](CC(N)=O)NC(=O)[C@H](CC(N)=O)NC(=O)[C@H](CSSC[C@@H](C(=O)N[C@@H](Cc4ccccc4)C(=O)N[C@@H](CCCCN)C(=O)N4CCC[C@H]4C(=O)N[C@@H](CC(C)C)C(=O)N[C@@H](CCC(N)=O)C(=O)N[C@@H](CCC(=O)O)C(=O)N[C@@H](C)C(=O)N[C@@H](CCC(=O)O)C(=O)N[C@@H](CSCNC(C)=O)C(=O)N[C@H](C(=O)N[C@@H](Cc4ccccc4)C(=O)O)[C@@H](C)O)NC(=O)[C@H](Cc4c[nH]c5ccccc45)NC(=O)[C@@H]4CCCN4C(=O)[C@H](C(C)C)NC(=O)CNC(=O)[C@@H]4CCCN4C1=O)NC(=O)[C@H](CCC(=O)O)NC(=O)[C@H](CCCCN)NC(=O)[C@@H]1CCCN1C(=O)[C@H]([C@@H](C)O)NC(=O)[C@H](C(C)C)NC(=O)[C@H](Cc1c[nH]cn1)NC(=O)[C@@H]1CCCN1C(=O)[C@H](Cc1ccc(O)cc1)NC(=O)CNC3=O)C(=O)N2 [TFF3(C^57Acm)]
half-life at 50 μM [1]: < 5 min
modification of LINGO2 BRET signal [2]: no statistically significant (p > 0.05) modification of BRET signal
